What was measured:
Type in all cases: cell-based
L-SIGN [1] = biological target: T1, L-SIGN (Homo sapiens, UniProt Q9H2X3); assay: Fluorescent beads adhesion assay, K562-L-SIGN cells; conditions: for inhibition of adhesion of ICAM-3-coated fluorescent beads to L-SIGN: FIG. 4A; for inhibition of adhesion of HIV-1 gp120-coated fluorescent beads to L-SIGN: FIG. 4B
T1 construct: The L-SIGN cDNA clone isolated from placental mRNA contained the entire coding region of the gene; expressed in transfected cells
T1 sequence (Q9H2X3 1-376 isoform Q9H2X3-8): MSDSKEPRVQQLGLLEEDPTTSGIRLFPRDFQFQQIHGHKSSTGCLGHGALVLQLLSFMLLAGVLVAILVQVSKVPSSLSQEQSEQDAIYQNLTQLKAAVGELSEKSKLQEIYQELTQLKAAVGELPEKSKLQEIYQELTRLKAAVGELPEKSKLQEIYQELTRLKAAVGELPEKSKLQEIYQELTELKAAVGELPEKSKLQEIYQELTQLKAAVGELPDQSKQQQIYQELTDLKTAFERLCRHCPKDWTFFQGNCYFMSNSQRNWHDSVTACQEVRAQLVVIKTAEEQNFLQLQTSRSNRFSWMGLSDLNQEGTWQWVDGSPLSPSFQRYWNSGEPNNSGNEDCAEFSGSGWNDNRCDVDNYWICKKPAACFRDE
Experimental: (§1) FIG. 4. L-SIGN binds ICAM-3 (A) and HIV-1 gp120 (B). Adhesion of ICAM-3 and gp120 to the K562-L-SIGN and K562-DC-SIGN cells was measured with the fluorescent bead adhesion assay (Geijtenbeek, T. B. et al., 1999, Blood 94:754-764). The y-axis represents the percent cells binding ligand-coated fluorescent beads. The L-SIGN-cross-reacting mAb AZN-D2 (20 μg/ml) and AZN-D3 (20 μg/ml) inhibit the adhesion of ICAM-3 and gp120 to L-SIGN, in contrast to the DC-SIGN-specific mAb AZN-D1 (20 μg/ml). […] Adhesion of both ligands to mock transfectants was less than 5%. One representative experiment out of three is shown (SD<5%).
(§2) Carboxylate-modified TransFluorSpheres (488/645 nm, 1.0 μm; Molecular Probes, Eugene, Oreg.) were coated with ICAM-3 as was previously described for ICAM-1 (Geijtenbeek, T. B. et al., 1999, Blood 94:754-764). Fluorescent beads were coated with M-tropic HIV-1MN envelope glycoprotein gp120 as follows: Streptavidin-coated fluorescent beads were incubated with biotinylated F(ab′)2 fragment rabbit anti-sheep IgG (6 μg/ml; Jackson Immunoresearch) followed by an overnight incubation with sheep-anti-gp120 antibody D7324 (Aalto Bio Reagents Ltd, Dublin, Ireland) at 4° C. The beads were washed and incubated with 250 ng/ml purified HIV-1 gp120 (provided by Immunodiagnostics, Inc through the NIH AIDS Research and Reference Reagent Program) overnight at 4° C.
(§3) The fluorescent beads adhesion assay was performed as described by Geijtenbeek et al.(l999, supra). Briefly, cells were resuspended in adhesion buffer (20 mM Tris-HCl pH 8.0, 150 mM NaCl, 1 mM CaCl2, 2 mM MgCl2, 0.5% BSA) at a final concentration of 5×10^6 cells/ml. 50,000 cells were pre-incubated with mAb (20 μg/ml) for 10 min at room temperature. Ligand-coated fluorescent beads (20 beads/cell) were added and the suspension was incubated for 30 min at 37° C. Adhesion was determined by measuring the percentage of cells that bound fluorescent beads using flow cytometry on a FACScan (Becton Dickinson, Oxnard, Calif.).

DC-SIGN [2] = biological target: T2, DC-SIGN (Homo sapiens, UniProt Q9NNX6); assay: Fluorescent beads adhesion assay, K562-DC-SIGN cells; conditions: for inhibition of adhesion of ICAM-3-coated fluorescent beads to DC-SIGN: FIG. 4A; for inhibition of adhesion of HIV-1 gp120-coated fluorescent beads to DC-SIGN: FIG. 4B
T2 construct: expressed in transfected cells
T2 sequence (Q9NNX6 1-404): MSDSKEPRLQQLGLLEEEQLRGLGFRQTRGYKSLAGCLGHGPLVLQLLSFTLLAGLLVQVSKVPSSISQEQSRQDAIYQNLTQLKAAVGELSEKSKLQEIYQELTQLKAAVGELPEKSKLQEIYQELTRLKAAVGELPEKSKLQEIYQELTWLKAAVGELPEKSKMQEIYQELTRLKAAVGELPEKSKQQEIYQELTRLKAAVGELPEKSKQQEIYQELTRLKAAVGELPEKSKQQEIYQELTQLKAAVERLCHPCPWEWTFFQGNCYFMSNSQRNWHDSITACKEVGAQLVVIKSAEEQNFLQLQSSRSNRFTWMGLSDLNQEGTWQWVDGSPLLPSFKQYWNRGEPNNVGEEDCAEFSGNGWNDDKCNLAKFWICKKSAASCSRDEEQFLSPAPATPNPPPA
Experimental: as §1, §2, §3

L-SIGN [3] = biological target: T1, L-SIGN; assay: HIV-1 enhancement assay, pseudotyped HIV-1 ADA, HEK293T cells expressing L-SIGN co-cultured with activated T cells; conditions: preincubation 20 μg/ml, after two days, FIG. 5B
Experimental: (§4) FIG. 5. L-SIGN captures and enhances infection of T cells with HIV-1 in trans. (A) L-SIGN captures HIV-1 and transmits it to target cells. Stable DC-SIGN or L-SIGN expressing THP-1 transfectants were pre-incubated with HIV-luc/JRFL pseudovirions to allow capture of the virus. Cells were washed and THP-1 transfectants were co-cultured with Hut/CCR5 target cells. Cell lysates were obtained after 3 days and analyzed for luciferase activity. For each of the co-culture conditions employed, mock infected controls were uniformly less than 100 counts per second in activity. Each data set represents the mean of four separate wells of infected cells. One representative experiment out of two is shown. […] Infectivity was determined after two days by measuring luciferase activity. […] Culture supernatants were collected at day 14 after K562-T cell co-culture and HIV-1 production was measured using ELISA to determine p24 antigen levels. […]
(§5) The infection assays were performed as described previously (Geijtenbeek, 2000a, supra; Geijtenbeek 2000b, supra). […] Viral stocks were evaluated by limiting dilution on GHOST CXCR4/CCR5 and 293T-CD4-CCR5 cells.
(§6) In contrast, HIV-1 enhancement assays utilized suboptimal concentrations of virus (typically <0.05 m.o.i.) without a wash step. […] Cell lysates were obtained after several days and analyzed for either luciferase activity or p24 antigen levels. […]

DC-SIGN [4] = biological target: T2, DC-SIGN; assay: HIV-1 enhancement assay, pseudotyped HIV-1 ADA, HEK293T cells expressing DC-SIGN co-cultured with activated T cells; conditions: preincubation 20 μg/ml, after two days, FIG. 5B
Experimental: as §4, §5, §6

## O=C(O)CN(CCOCCOCCN(CC(=O)O)CC(=O)O)CC(=O)O [EGTA]
L-SIGN [1]; 5 mM
  inhibition of adhesion of ICAM-3-coated fluorescent beads to L-SIGN: inhibited
  inhibition of adhesion of HIV-1 gp120-coated fluorescent beads to L-SIGN: inhibited
DC-SIGN [2]; 5 mM
  inhibition of adhesion of ICAM-3-coated fluorescent beads to DC-SIGN: inhibited
  inhibition of adhesion of HIV-1 gp120-coated fluorescent beads to DC-SIGN: inhibited

## mannan
L-SIGN [3]
  inhibition of L-SIGN-mediated enhancement of HIV-1 infection of T cells in trans (luciferase activity): efficiently inhibited
L-SIGN [1]; 20 μg/ml
  inhibition of adhesion of ICAM-3-coated fluorescent beads to L-SIGN: inhibited
  inhibition of adhesion of HIV-1 gp120-coated fluorescent beads to L-SIGN: inhibited
DC-SIGN [4]
  inhibition of DC-SIGN-mediated enhancement of HIV-1 infection of T cells in trans (luciferase activity): efficiently inhibited
DC-SIGN [2]; 20 μg/ml
  inhibition of adhesion of ICAM-3-coated fluorescent beads to DC-SIGN: inhibited
  inhibition of adhesion of HIV-1 gp120-coated fluorescent beads to DC-SIGN: inhibited
